# Experimental data: publication PMC7870638, “Toxicity of anticancer drugs in human placental tissue explants and trophoblast cell lines” (Archives of Toxicology, 2020)
# Where two headings read alike, the source gives them in different places.
# What was measured:
# [1] = tested on: placental villous explants; assay: MTT assay in placental explants (tissue viability); type: cell-based, human; details: 72 h exposure, 1, 10 or 100 µM
# Procedure: (§1) Term placentas, obtained from consenting women following uncomplicated pregnancies and delivered vaginally or by caesarean section, were used for all experiments. Approval of the Regional Committee on Research involving Human Subjects was obtained (File 2014-1397). Within 60 min after delivery, 1 cm^3 villous tissue samples were excised at random areas midway between the umbilical cord and distal edge of the placenta. To remove maternal blood, samples were carefully rinsed in sterile Dulbecco’s phosphate-buffered saline supplemented with calcium chloride and magnesium chloride (Sigma-Aldrich, St. Louis, MO, USA) which was kept at 37 °C. The villous tissue was cut into small pieces weighing approximately 5 mg, after which 4–6 pieces of tissue were cultured together in individual wells of a 6-well plate. The explants were cultured in 1.5 ml of RPMI-1640 culture medium (Gibco, USA) with 15% heat-inactivated fetal bovine serum, 1% penicillin streptomycin, 1% gentamicin, and 1% amphotericin B (Life Technologies, USA). Placental explant cultures were kept for 7 days at 37 °C in a humidified gas mixture of 5% CO2 and 95% air. The culture medium was renewed every 24 h.
# (§2) Treatment with TKIs or cytostatic drugs was started at day four of culture to allow for the syncytiotrophoblasts to regenerate (Siman et al. [2001]). Explants were then incubated for 72 h with 1, 10 or 100 µM of all TKIs or cytostatic drugs mentioned above. […] Culture medium was replaced every 24 h with new medium containing the original concentration of the drug. Supernatant was collected each day and stored at − 20 °C for hormone quantification.
# (§3) To evaluate tissue and cell viability, after 72 h of drug exposure, tissue explants were incubated for 4 h at 37 °C with 1 mM 3-(4,5-dimethylthiazol-2-yl)-[…] (MTT) in RPMI. After incubation, the medium was removed, the tissue in each well was weighed, and the explants were subsequently placed in 500 µL DMSO for 10 min to dissolve the formazan formed. After 10 min, the DMSO was transferred to a 96-well plate and absorbance was measured at 540 nm using a Biorad Multiwell Plate reader.
# (§4) Construction of graphs and data analysis were performed using Graphpad Prism version 8.4.2. MTT conversion and progesterone and estrone release in placental explants were normalized to tissue wet weight. To compare the effects on tissue viability and cell viability, the data were normalized to control conditions and mean differences were tested using an unpaired t test, a one-way ANOVA, or a two-way repeated measures ANOVA. The change in progesterone release rate as compared to the baseline (at 0 h) was calculated for each well separately, after which data were normalized to control conditions. One-way ANOVA was used to assess effects at the 72 h time point only. The Bonferroni post hoc test was applied to compare treatment conditions with controls. Data are described as mean ± SD in Figs. 2 and 3 and as mean ± SEM in all other figures where comparisons of means between groups were made. The mean and SD or SEM were calculated from all individual results (three experiments performed in duplicate or triplicate wells, n = 6 or n = 9).
# [2] = tested on: progesterone release in syncytialised BeWo cells; assay: Steroidogenesis (progesterone release) in syncytialised BeWo cells; type: cell-based, human; details: 48 h; for progesterone release (in words): crizotinib 1 μM, paclitaxel 3 nM, cisplatin 100 μM, carboplatin 100 μM
# Procedure: (§5) Two human choriocarcinoma-derived placental cell lines were used: JEG3 and BeWo (ATCC catalog numbers HTB-36 and CCL-98, respectively). JEG3 cells were cultured in DMEM and Bewo cells in Ham’s F-12 K medium, supplemented with 10% fetal calf serum and 1% penicillin and streptomycin under a humidified 5% CO2/95% air atmosphere at 37 °C. Cells were passaged (JEG3: 1:10 twice a week; BeWo: 1:3 once a week) after trypsinization with 0.05% Trypsin–EDTA when cells reached approximately 80% confluency. For BeWo cells, the medium was renewed 3 times a week. To create syncytialised BeWo cells, regular BeWo cells were treated with 50 μM forskolin (Sigma-Aldrich, St. Louis, MO, USA) in 0.1% DMSO, to initiate syncytialisation. As forskolin increases the intracellular cAMP levels, it activates protein kinase A after which syncytialisation and fusion of trophoblasts occurs (Orendi et al. [2010]).
# For doxorubicin, only two concentrations were tested. Conditioned medium, containing the secreted hormones, was collected after 48 h exposure to the TKIs and cytostatic drugs and stored at − 80 °C until analysis. To eliminate the influence of the varying cell densities between the wells, total protein content in each well was measured. Cells were washed twice with Hank’s buffered Salt Solution (HBSS) and lysed with 50 μL 1 M sodium hydroxide (NaOH). Subsequently, 10 μL of the lysate was mixed with 190 μL of 5 times diluted dye reagent (Biorad protein assay). The absorbance was measured at 595 nm using a Biorad Multiwell Plate reader. The quantities of protein in the samples were determined via a calibration curve of bovine serum albumin.
# (§6) Progesterone and estrone concentrations in culture medium were determined by LC–MS/MS analysis using an Acquity UPLC (Waters, Milford, MA, USA) equipped with a C18 UPLC column (Acquity UPLC BEH C18, 2.1 × 50 mm, Milford, MA, USA, Waters) coupled to a Xevo TQ-S (Waters) triple quadrupole mass spectrometer. Progesterone-D9 was used as internal standard and calibration curves were made in the matrix. To precipitate proteins, methanol containing the internal standard was added to culture medium samples in a ratio 3:1 (MeOH:medium). Following subsequent centrifugation (13,000g for 3 min), 1 μl of the clear supernatant was injected into the LC–MS to quantify progesterone and estrone. Solvent A consisted of 0.2 mM NH4F in water and solvent B consisted of 0.2 mM NH4F in Acetonitrile:Methanol in a ratio of 75:25%. Separation was performed at a flow rate of 350 µl/min under the following gradient conditions: 0 min 60% eluent A, 3.0 min 0% eluent A, 4 min 0% eluent A, 5 min 60% eluent A. The effluent from the UPLC was passed directly into the electrospray ion source. Positive electrospray ionization was achieved using nitrogen as a desolation gas with ionization voltage at 600 V. The source temperature was set at 500 °C and argon was used as collision gas. The following SRM transitions were used: m/z 315.10 (parent ion) to m/z 69.9 and m/z 108.9 (both product ions) for progesterone, m/z 269.0 (parent ion) to m/z 144.9 and 158.9 (product ions) for estrone, and m/z 324.2 (parent ion) to m/z 99.9 and m/z 112.9 (product ions) for the internal standard d9-progesterone. We also attempted to quantify estradiol and estriol levels in the culture medium of both explants and cells, but these were below the detection limit.
# [3] = tested on: progesterone and estrone release in placental explants; assay: Steroid (progesterone, estrone) release in placental explants, LC-MS/MS of culture medium; type: cell-based, human; details: placental explants; for progesterone release relative to control (in words): 100 µM, 72 h exposure; for reduction in progesterone release (in words): 10 and 100 µM gefitinib, 100 μM imatinib, effects over time (Fig. S2A)
# Procedure: as §1
# Treatment with TKIs or cytostatic drugs was started at day four of culture to allow for the syncytiotrophoblasts to regenerate (Siman et al. [2001]). Explants were then incubated for 72 h with 1, 10 or 100 µM of all TKIs or cytostatic drugs mentioned above. […] For cisplatin and carboplatin, culture medium was used as a solvent. Culture medium was replaced every 24 h with new medium containing the original concentration of the drug. Supernatant was collected each day and stored at − 20 °C for hormone quantification.
# as §6
# Construction of graphs and data analysis were performed using Graphpad Prism version 8.4.2. MTT conversion and progesterone and estrone release in placental explants were normalized to tissue wet weight. To compare the effects on tissue viability and cell viability, the data were normalized to control conditions and mean differences were tested using an unpaired t test, a one-way ANOVA, or a two-way repeated measures ANOVA. […]
# [4] = MTT assay in placental explants (tissue viability); type: cell-based, human; details: female, human, term placental villous tissue explants, 100 µM, 72 h exposure, mean ± SEM, read-out: tissue viability, % of control
# Procedure: as §1, §2, §3, §4
# [5] = tested on: progesterone release in BeWo cells; assay: Progesterone release in BeWo cells in control conditions (forskolin-induced syncytialisation); type: cell-based; details: Homo sapiens, 48 h, read-out: progesterone production, % of control
# Procedure: Two human choriocarcinoma-derived placental cell lines were used: JEG3 and BeWo (ATCC catalog numbers HTB-36 and CCL-98, respectively). JEG3 cells were cultured in DMEM and Bewo cells in Ham’s F-12 K medium, supplemented with 10% fetal calf serum and 1% penicillin and streptomycin under a humidified 5% CO2/95% air atmosphere at 37 °C. Cells were passaged (JEG3: 1:10 twice a week; BeWo: 1:3 once a week) after trypsinization with 0.05% Trypsin–EDTA when cells reached approximately 80% confluency. For BeWo cells, the medium was renewed 3 times a week. […]
# For doxorubicin, only two concentrations were tested. […] To eliminate the influence of the varying cell densities between the wells, total protein content in each well was measured. […] The absorbance was measured at 595 nm using a Biorad Multiwell Plate reader. The quantities of protein in the samples were determined via a calibration curve of bovine serum albumin.
# Progesterone and estrone concentrations in culture medium were determined by LC–MS/MS analysis using an Acquity UPLC (Waters, Milford, MA, USA) equipped with a C18 UPLC column (Acquity UPLC BEH C18, 2.1 × 50 mm, Milford, MA, USA, Waters) coupled to a Xevo TQ-S (Waters) triple quadrupole mass spectrometer. […] Following subsequent centrifugation (13,000g for 3 min), 1 μl of the clear supernatant was injected into the LC–MS to quantify progesterone and estrone. […]
# [6] = tested on: JEG-3, BeWo, and syncytialised BeWo cells; assay: MTT assay, cell viability in all three trophoblast cell types; type: cell-based, human
# Procedure: as §5
# The cells were seeded in 96-well culture plates at a cell density of 1 × 10^4 cells/well and cultured for 24 h at 37 °C in a humidified atmosphere with 5% CO2 to allow for attachment. Subsequently, the cells were exposed to the TKIs and cytostatic drugs in concentrations ranging from 100 pM to 100 µM (triplicate). […] This is a minimum percentage DMSO, but required as cells required co-incubation with forskolin to syncytialise. Crizotinib 100 μM was used as positive control. After attachment, cells were incubated with the compounds for 48 h, after which the medium was removed and the cells were exposed to […] diluted in medium. After 3 h of incubation with MTT, the formazan crystals formed were solubilized in 50 μL DMSO. The absorbance of formazan was measured at 540 nm by a Biorad Multiwell Plate reader.
# syncytialised BeWo cells = type: cell-based, human
# Procedure: The cells were seeded in 96-well culture plates at a cell density of 1 × 10^4 cells/well and cultured for 24 h at 37 °C in a humidified atmosphere with 5% CO2 to allow for attachment. Subsequently, the cells were exposed to the TKIs and cytostatic drugs in concentrations ranging from 100 pM to 100 µM (triplicate). […] This is a minimum percentage DMSO, but required as cells required co-incubation with forskolin to syncytialise. Crizotinib 100 μM was used as positive control. […] The absorbance of formazan was measured at 540 nm by a Biorad Multiwell Plate reader.
# [7] = ref Gaver et al. [1988]; cited from earlier work
# [8] = design: method as in Berveiller et al. [2018]; details: in vivo; ref Berveiller et al. [2018]; cited from earlier work
# [9] = tested on: isolated third trimester primary trophoblasts; design: method as in Berveiller et al. [2018]; details: ref Berveiller et al. [2018], read-out: concentration giving 50% reduction in cell viability; cited from earlier work
# [10] = tested on: undifferentiated BeWo cells; assay: MTT assay, cell viability in undifferentiated BeWo cells; type: cell-based; details: Homo sapiens, 48 h exposure, read-out: concentration giving 50% reduction in cell viability
# Procedure: as §5
# The cells were seeded in 96-well culture plates at a cell density of 1 × 10^4 cells/well and cultured for 24 h at 37 °C in a humidified atmosphere with 5% CO2 to allow for attachment. Subsequently, the cells were exposed to the TKIs and cytostatic drugs in concentrations ranging from 100 pM to 100 µM (triplicate). […] The absorbance of formazan was measured at 540 nm by a Biorad Multiwell Plate reader.
# [11] = 50 µM, 24 h, 48 h and 72 h exposure starting at day 4
smiles,measurement,setting,value
"C[C@@H](Oc1cc(-c2cnn(C3CCNCC3)c2)cnc1N)c1c(Cl)ccc(F)c1Cl [crizotinib, Crizotinib]",effect on tissue viability (in words),[1],fully inhibited tissue viability
same,progesterone release (in words),[2]; not statistically significant,slight induction of progesterone release
same,progesterone release relative to control (in words),[3],statistically significant reduction in progesterone release
N.N.[Cl][Pt][Cl] [cisplatin],progesterone release (in words),[2]; not statistically significant,slight induction of progesterone release
COc1cc2ncnc(Nc3ccc(F)c(Cl)c3)c2cc1OCCCN1CCOCC1 [gefitinib],"viability at 72 h, 100 µM",[4],24 ± 4%
same,reduction in progesterone release (in words),[3],only statistically significant if effects over time were analyzed
"Cc1ccc(NC(=O)c2ccc(CN3CCN(C)CC3)cc2)cc1Nc1nccc(-c2cccnc2)n1 [imatinib, Imatinib]",activity at 10 µM,"[2]; Homo sapiens, 10 µM, not statistically significant, read-out: progesterone release, % of control",76 ± 9%
same,reduction in progesterone release (in words),[3],only statistically significant if effects over time were analyzed
C=C[C@@]1(C)CC(=O)[C@]2(O)[C@@]3(C)[C@@H](O)CCC(C)(C)[C@@H]3[C@H](O)[C@H](OC(C)=O)[C@@]2(C)O1 [forskolin],activity at 50 µM,[5]; Forskolin 50 μM in 0.1% DMSO,370 ± 50%
same,activity at 50 µM,[5]; Forskolin 50 μM in 0.5% DMSO,215 ± 12%
same,estrone release (in words),[3]; [11],significant induction in estrone release
same,progesterone release (in words),[3]; [11],not progesterone release
same,effect on cell viability (in words),"[6]; JEG-3 or BeWo cells, 50 μM, 48 h incubation",did not alter cell viability
"CCN(CC)CCNC(=O)c1c(C)[nH]c(/C=C2\C(=O)Nc3ccc(F)cc32)c1C [sunitinib, sunitinib malate]",effect on tissue viability (in words),[1],fully inhibited tissue viability
same,activity at 1 µM,"[2]; Homo sapiens, 1 µM, P < 0.05, read-out: progesterone release, % of control",76 ± 6%
same,activity at 3 µM,"[2]; Homo sapiens, 3 µM, P < 0.001, read-out: progesterone release, % of control",50 ± 4%
same,progesterone release relative to control (in words),[3],statistically significant reduction in progesterone release
same,cytotoxicity in syncytialised BeWo cells compared to undifferentiated BeWo and JEG3 cells (in words),syncytialised BeWo cells,inhibited cell viability at multiple concentrations to a lesser extent in syncytialised BeWo cells
N.N.O=C([O-])C1(C(=O)[O-])CCC1.[Pt+2] [carboplatin],progesterone release (in words),[2]; not statistically significant,slight induction of progesterone release
same,plasma concentration (may be as high as),[7],≤ 100 µM
CC(=O)O[C@H]1C(=O)[C@@]2(C)[C@H]([C@H](OC(=O)c3ccccc3)[C@]3(O)C[C@H](OC(=O)[C@H](O)[C@@H](NC(=O)c4ccccc4)c4ccccc4)C(C)=C1C3(C)C)[C@]1(OC(C)=O)CO[C@@H]1C[C@@H]2O [paclitaxel],concentration in placental tissue compared to maternal levels at delivery,[8],ten-fold higher
same,effect on tissue viability (in words),[1],"moderately affected tissue viability, but this was not statistically significant"
same,progesterone release (in words),[2]; not statistically significant,slight induction of progesterone release
same,IC50,[9],18 to 180 nM
same,IC50,"[6]; Homo sapiens, all cell types (JEG-3, BeWo, syncytialised BeWo), 48 h exposure, read-out: concentration at which cell viability was reduced to 50% or less",3 to 10 nM
same,IC50,[10],1 to 3 nM
same,cytotoxicity in syncytialised BeWo cells compared to undifferentiated BeWo and JEG3 cells (in words),syncytialised BeWo cells; 48 h exposure,consistently less cytotoxic in syncytialised BeWo cells
